{"source": "patent US20070167464A1", "about": "“Fungicidal mixtures” (BASF Aktiengesellschaft, priority 2004, published 2007)", "test_system": "Pyrenophora teres", "experiment": "activity against net blotch of barley caused by Pyrenophora teres, 1-day-protective application", "format": "in vivo, Pyrenophora [syn. Drechslera] teres on barley seedlings", "conditions": "individual active compound, evaluated after 6 days", "description": "The active compounds, separately or jointly, were prepared as a stock solution comprising 0.25% by weight of active compound in acetone or DMSO. 1% by weight of the emulsifier Uniperol® EL (wetting agent having emulsifying and dispersant action based on ethoxylated alkylphenols) was added to this solution, and the mixture was diluted with water to the desired concentration.\nUse example-activity against net blotch of barley caused by Pyrenophora teres, 1-day-protective application\nLeaves of pot-grown barley seedlings were sprayed to run-off point with an aqueous suspension having the concentration of active compound stated below. 24 hours after the spray coating had dried on, the test plants were inoculated with an aqueous spore suspension of Pyrenophora[syn. Drechslera] teres, the causative agent of net blotch. The test plants were subsequently placed in a greenhouse at temperatures between 20 and 24° C. and at 95 to 100% relative atmospheric humidity. After 6 days, the extent of development of the disease was determined visually in % infection of the total leaf area.\nThe visually determined percentages of infected leaf areas were converted into efficacies in % of the untreated control:\nThe efficacy (E) is calculated as follows using Abbot's formula: E=(1α/β)·100 • α corresponds to the fungicidal infection of the treated plants in % and • β corresponds to the fungicidal infection of the untreated (control) plants in %\nAn efficacy of 0 means that the infection level of the treated plants corresponds to that of the untreated control plants; an efficacy of 100 means that the treated plants were not infected.\nThe expected efficacies of mixtures of active compounds were determined using Colby's formula (Colby, S. R. “Calculating synergistic and antagonistic responses of herbicide combinations”, Weeds, 15, 20-22, 1967) and compared with the observed efficacies.\nColby's Formula: E=x+y−x·y/100 • E expected efficacy, expressed in % of the untreated control, when using the mixture of the active compounds A and B at the concentrations a and b • x efficacy, expressed in % of the untreated control, when using the active compound A at the concentration a\ny efficacy, expressed in % of the untreated control, when using the active compound B at the concentration b"}
{"smiles": "CC1CCN(c2c(-c3c(F)cc(F)cc3F)c(Cl)nc3ncnn23)CC1", "note": "[I, 5-chloro-7-(4-methylpiperidin-1-yl)-6-(2,4,6-trifluorophenyl)-[1,2,4]triazolo[1,5-a]pyrimidine]", "values": [{"measurement": "Efficacy in % of the untreated control", "setting": "1.25 ppm in the spray liquor", "result": 53, "unit": "%"}]}
{"smiles": "CC(C)OC(=O)N[C@H](C(=O)N[C@H](C)c1nc2ccc(F)cc2s1)C(C)C", "note": "[II.1, isopropyl {(S)-1-[(1 R)-1-(6-fluorobenzothiazol-2-yl)ethylcarbamoyl]-2-methylpropyl}carbamate]", "values": [{"measurement": "Efficacy in % of the untreated control", "setting": "0.25 ppm in the spray liquor", "result": 0, "unit": "%"}, {"measurement": "Efficacy in % of the untreated control", "setting": "1.25 ppm in the spray liquor", "result": 0, "unit": "%"}, {"measurement": "Efficacy in % of the untreated control", "setting": "6.25 ppm in the spray liquor", "result": 0, "unit": "%"}]}
